From PubChem BioAssay AID328 (DTP/NCI, 2004)
“And” between values parts separate entries of the source, which are not always exact repeats. Equal entries are not always repeated. Inconclusive results and toxic doses are left out. The calls were made as follows: active = survival T/C of 150% or more; inactive = T/C below 125% in these data. Starred links: 1 amine or outer side, 2 acyl side, 3 side chain; linkers in the order of their positions; H or OH if unused. Positions of bridges follow the written chain, without caps; N, C: chain ends. Non-standard residues stand in square brackets, D forms with d. Residues, ends and D or L forms follow the SMILES beside them. Chains are numbered I, II in the order given. Actinocin(9to1) = Cc1c2oc3c(C)ccc(C(=O)[*:1])c3nc-2c(C(=O)[*:2])c(N)c1=O; aThr = C[C@H](O)[C@H](N)C(=O)O; NMeV = CN[C@H](C(=O)O)C(C)C; Sar = CNCC(=O)O

Test system: BDF1 mice, P388 leukemia ip, median survival T/C
Experiment: NCI In Vivo Anticancer Drug Screen. Data for tumor model P388 Leukemia (intraperitoneal) in B6D2F1 (BDF1) mice
Conditions: endpoint: median survival time, higher = longer survival
Outline: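 Each value expresses how treatment altered survival: treated-mouse outcome over vehicle-mouse outcome, both groups bearing the transplanted tumour.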

Measured: T/C

Cc1c2oc3c(C)ccc(C(=O)N[C@@H]4C(=O)N[C@H](C(C)C)C(=O)N5CCC[C@H]5C(=O)N(C)CC(=O)N(C)[C@@H](C(C)C)C(=O)O[C@H]4C)c3nc-2c(C(=O)N[C@@H]2C(=O)N[C@H](C(C)C)C(=O)N3CCC[C@H]3C(=O)N(C)CC(=O)N(C)[C@@H](C(C)C)C(=O)O[C@H]2C)c(N)c1=O (I: [aThr][dV]P[Sar][NMeV] / II: [aThr][dV]P[Sar][NMeV]; ester I:1-I:C, II:1-II:C; linker I:N-II:N via Actinocin(9to1))
301 % of control and 106 % of control: dose: 50.0 micrograms/kg/injection, schedule: Q01DX009 (ip), vehicle: water
292 % of control and 99 % of control: dose: 75.0 micrograms/kg/injection, schedule: Q01DX009 (ip), vehicle: saline + alcohol
active: dose: 0.03 mg/kg/injection, schedule: Q01DX009 (ip), vehicle: saline 233 % of control | dose: 0.03 mg/kg/injection, schedule: Q04DX003 (ip), vehicle: saline + alcohol 161 % of control | dose: 0.06 mg/kg/injection, schedule: Q04DX003 (ip), vehicle: saline + alcohol 157 % of control | dose: 0.07 mg/kg/injection, schedule: Q01DX009 (ip), vehicle: saline 250 % of control | dose: 0.1 mg/kg/injection, schedule: Q01DX001 (ip), vehicle: saline 194 % of control | dose: 0.13 mg/kg/injection, schedule: Q04DX003 (ip), vehicle: saline + alcohol 184 % of control | dose: 0.2 mg/kg/injection, schedule: Q01DX001 (ip), vehicle: saline 225 % of control | dose: 0.25 mg/kg/injection, schedule: Q01DX001 (ip), vehicle: saline 178 % of control | dose: 0.26 mg/kg/injection, schedule: Q01DX001 (ip), vehicle: saline 167 % of control | dose: 0.35 mg/kg/injection, schedule: Q01DX001 (ip), vehicle: other 166 % of control | dose: 0.35 mg/kg/injection, schedule: Q01DX001 (ip), vehicle: saline 176 % of control and 185 % of control | dose: 0.4 mg/kg/injection, schedule: Q01DX001 (ip), vehicle: water 183 % of control | dose: 0.5 mg/kg/injection, schedule: Q01DX001 (ip), vehicle: other 192 % of control | dose: 0.54 mg/kg/injection, schedule: Q01DX001 (ip), vehicle: saline 195 % of control | dose: 0.6 mg/kg/injection, schedule: Q01DX001 (ip), vehicle: saline 223 % of control | dose: 0.8 mg/kg/injection, schedule: Q01DX001 (ip), vehicle: other 236 % of control | dose: 0.9 mg/kg/injection, schedule: Q01DX001 (ip), vehicle: saline 230 % of control | dose: 1.2 mg/kg/injection, schedule: Q01DX001 (ip), vehicle: saline 225 % of control | dose: 3.1 micrograms/kg/injection, schedule: Q01DX010 (ip), vehicle: saline 170 % of control | dose: 12.5 micrograms/kg/injection, schedule: Q01DX009 (ip), vehicle: saline 177 % of control | dose: 12.5 micrograms/kg/injection, schedule: Q01DX009 (ip), vehicle: water 153 % of control | dose: 12.5 micrograms/kg/injection, schedule: Q01DX010 (ip), vehicle: saline 225 % of control | dose: 12.5 micrograms/kg/injection, schedule: Q04DX003 (ip), vehicle: saline 154 % of control | dose: 21.6 micrograms/kg/injection, schedule: Q01DX009 (ip), vehicle: saline + alcohol 238 % of control | dose: 25.0 micrograms/kg/injection, schedule: Q01DX009 (ip), vehicle: saline + alcohol 294 % of control and 162 % of control | dose: 25.0 micrograms/kg/injection, schedule: Q01DX009 (ip), vehicle: saline 250 % of control and 274 % of control and 200 % of control | dose: 25.0 micrograms/kg/injection, schedule: Q01DX009 (ip), vehicle: water 155 % of control | dose: 25.0 micrograms/kg/injection, schedule: Q01DX010 (ip), vehicle: saline 245 % of control | dose: 25.0 micrograms/kg/injection, schedule: Q03HX024 (ip), vehicle: saline 263 % of control | dose: 25.0 micrograms/kg/injection, schedule: Q04DX003 (ip), vehicle: saline 154 % of control | dose: 30.0 micrograms/kg/injection, schedule: Q03HX024 (ip), vehicle: saline 250 % of control | dose: 36.0 micrograms/kg/injection, schedule: Q01DX009 (ip), vehicle: saline + alcohol 241 % of control and 314 % of control | dose: 37.5 micrograms/kg/injection, schedule: Q01DX009 (ip), vehicle: saline + alcohol 228 % of control and 169 % of control | dose: 38.9 micrograms/kg/injection, schedule: Q04DX003 (ip), vehicle: saline + alcohol 174 % of control | dose: 50.0 micrograms/kg/injection, schedule: Q01DX001 (ip), vehicle: saline 154 % of control | dose: 50.0 micrograms/kg/injection, schedule: Q01DX009 (ip), vehicle: saline + alcohol 281 % of control and 294 % of control and 191 % of control | dose: 50.0 micrograms/kg/injection, schedule: Q01DX009 (ip), vehicle: saline 268 % of control and 271 % of control and 352 % of control | dose: 50.0 micrograms/kg/injection, schedule: Q01DX010 (ip), vehicle: other 295 % of control | dose: 50.0 micrograms/kg/injection, schedule: Q01DX010 (ip), vehicle: saline 295 % of control and 300 % of control | dose: 50.0 micrograms/kg/injection, schedule: Q04DX003 (ip), vehicle: saline 177 % of control | dose: 60.0 micrograms/kg/injection, schedule: Q01DX009 (ip), vehicle: saline + alcohol 314 % of control and 348 % of control | dose: 64.8 micrograms/kg/injection, schedule: Q04DX003 (ip), vehicle: saline + alcohol 168 % of control | dose: 75.0 micrograms/kg/injection, schedule: Q04DX003 (ip), vehicle: saline + alcohol 247 % of control | dose: 75.0 micrograms/kg/injection, schedule: Q04DX003 (ip), vehicle: saline 257 % of control and 182 % of control | dose: 75.0 micrograms/kg/injection, schedule: Q04DX003 (ip), vehicle: water 183 % of control | dose: 100.0 micrograms/kg/injection, schedule: Q01DX001 (ip), vehicle: saline 168 % of control | dose: 100.0 micrograms/kg/injection, schedule: Q01DX009 (ip), vehicle: water 336 % of control | dose: 100.0 micrograms/kg/injection, schedule: Q04DX003 (ip), vehicle: saline 231 % of control | dose: 112.5 micrograms/kg/injection, schedule: Q04DX003 (ip), vehicle: saline + alcohol 274 % of control and 161 % of control | dose: 150.0 micrograms/kg/injection, schedule: Q04DX003 (ip), vehicle: saline 273 % of control and 306 % of control | dose: 200.0 micrograms/kg/injection, schedule: Q01DX001 (ip), vehicle: saline 177 % of control | dose: 225.0 micrograms/kg/injection, schedule: Q04DX003 (ip), vehicle: saline + alcohol 290 % of control and 327 % of control and 182 % of control | dose: 300.0 micrograms/kg/injection, schedule: Q04DX003 (ip), vehicle: saline 361 % of control | dose: 300.0 micrograms/kg/injection, schedule: Q04DX003 (ip), vehicle: water 232 % of control | dose: 400.0 micrograms/kg/injection, schedule: Q01DX001 (ip), vehicle: saline 227 % of control | dose: 400.0 micrograms/kg/injection, schedule: Q04DX003 (ip), vehicle: saline 236 % of control | dose: 600.0 micrograms/kg/injection, schedule: Q04DX003 (ip), vehicle: water 189 % of control
inactive: dose: 0.13 mg/kg/injection, schedule: Q01DX009 (ip), vehicle: saline 100 % of control | dose: 0.3 mg/kg/injection, schedule: Q04DX003 (ip), vehicle: saline 100 % of control | dose: 0.35 mg/kg/injection, schedule: Q04DX003 (ip), vehicle: saline 95 % of control | dose: 0.4 mg/kg/injection, schedule: Q04DX003 (ip), vehicle: saline 90 % of control | dose: 0.5 mg/kg/injection, schedule: Q04DX003 (ip), vehicle: saline + alcohol 79 % of control | dose: 3.1 micrograms/kg/injection, schedule: Q01DX001 (ip), vehicle: saline 118 % of control | dose: 3.1 micrograms/kg/injection, schedule: Q04DX003 (ip), vehicle: saline 113 % of control | dose: 6.3 micrograms/kg/injection, schedule: Q01DX001 (ip), vehicle: saline 122 % of control | dose: 35.0 micrograms/kg/injection, schedule: Q03HX024 (ip), vehicle: saline 100 % of control | dose: 75.0 micrograms/kg/injection, schedule: Q01DX009 (ip), vehicle: saline 100 % of control | dose: 100.0 micrograms/kg/injection, schedule: Q01DX009 (ip), vehicle: saline 91 % of control and 107 % of control | dose: 100.0 micrograms/kg/injection, schedule: Q01DX010 (ip), vehicle: saline 105 % of control and 120 % of control | dose: 200.0 micrograms/kg/injection, schedule: Q01DX010 (ip), vehicle: saline 90 % of control | dose: 600.0 micrograms/kg/injection, schedule: Q04DX003 (ip), vehicle: saline + alcohol 118 % of control
